Earlier results on one molecule are cited in patent US20070098750A1, “PESTICIDAL COMPOSITIONS CONTAINING ISOPROPYL MYRISTATE AND ANALOGS OF SAME AS A SYNERGIST FOR PLANT ESSENTIAL OILS” (EcoSmart Technologies, Inc., priority 2005, published 2007).

Turning to `CCCCOCCOCCOCc1cc2c(cc1CCC)OCO2` [PBO, piperonyl butoxide], for the setting “even at the lowest doses, 30 mg/kg/day”, the Chronic toxicity finding result is “increased liver weights”. Further, the “Carcinogenicity finding in animal studies” value (even treatments as low as 1.2%) is listed as “hepatocellular carcinomas”.
